Assay results published in ChEMBL document CHEMBL4814073, “Ring-opening of five-membered heterocycles conjugated 4-isopropylresorcinol scaffold-based benzamides as HSP90 inhibitors suppressing tumor growth in vitro and in vivo” (Eur J Med Chem, 2021).
Active and inactive are the calls of the source. The rule behind the calls is not given here.

Experiments:
[1] = Apparent permeability across basolateral to apical in human Caco2 cells by LC-MS/MS analysis; type: ADME, cell-based; conditions: Caco-2, read-out: permeability
Heat shock protein HSP90 [2] = molecular target: T1, Heat shock protein HSP90 (Homo sapiens, UniProt P07900+P08238); assay: Inhibition of HSP90 (unknown origin) assessed as competition of fluorescently labelled geldanamycin binding after 2 hrs by microplate reader analysis; type: protein assay
Heat shock protein HSP90 [3] = molecular target: T1, Heat shock protein HSP90; assay: Inhibition of HSP90 in human A549 cells assessed as downregulation of Akt expression incubated for 24 hrs by immunoblot analysis; type: cell-based; conditions: dose microM <=3, time 24.0 hrs
Heat shock protein HSP90 [4] = molecular target: T1, Heat shock protein HSP90; assay: Inhibition of HSP90 in human A549 cells assessed as downregulation of Akt expression at 3 uM by immunoblot analysis; type: cell-based; conditions: time hrs <=24, TDE = time-dependent effect
A549 [5] = assay: Induction of EGFR degradation in human A549 cells assessed as reduction in eGFR expression measured after 24 hrs by immunoblot analysis; type: functional, cell-based; conditions: dose microM <=3, time 24.0 hrs
A549 [6] = assay: Inhibition of MAPK signaling pathway in human A549 cells at 3 uM incubated upto 24 hrs by immunoblot analysis; type: cell-based; conditions: time hrs <=24, TDE = time-dependent effect
A549 [7] = assay: Antimigratory activity against human A549 cells assessed as inhibition of migration at 0.1 to 3 uM incubated for 6 hrs by crystal violet staining based by Boyden chamber method; type: functional, cell-based; conditions: dose 0.1-3 µM
A549 [8] = assay: Induction of cell cycle arrest in human A549 cells assessed as upregulation of cyclinB1 protein expression at 0.3 uM incubated for 24 hrs by Western blot analysis; type: functional, cell-based
A549 [9] = assay: Induction of cell cycle arrest in human A549 cells assessed as decrease in cdc2 expression at Tyr15 at 0.3 uM incubated for 24 hrs by Western blot analysis; type: functional, cell-based
A549 [10] = assay: Induction of apoptosis in human A549 cells assessed as increase in cleaved caspase 3 protein expression at 0.3 to 3 uM measured after 18 hrs by western blot analysis; type: functional, cell-based; conditions: dose 0.3-3 µM
A549 [11] = assay: Induction of apoptosis in human A549 cells assessed as increase in cleaved caspase 6 protein expression at 0.3 to 3 uM measured after 18 hrs by western blot analysis; type: functional, cell-based; conditions: dose 0.3-3 µM
A549 [12] = assay: Induction of apoptosis in human A549 cells assessed as increase in PARP cleavage at 0.3 to 3 uM measured after 18 hrs by western blot analysis; type: functional, cell-based; conditions: dose 0.3-3 µM
hERG (KCNH2) = hERG (KCNH2) (Homo sapiens, UniProt Q12809); assay: Inhibition of human ERG stably expressed in HEK293 cells at 10 uM measured after 60 mins by [3H]]Astemizole binding assay; type: cell-based; conditions: HEK293 cells stably expressing hERG, probe [3H]astemizole
Chain of hERG (KCNH2) (Q12809 whole entry): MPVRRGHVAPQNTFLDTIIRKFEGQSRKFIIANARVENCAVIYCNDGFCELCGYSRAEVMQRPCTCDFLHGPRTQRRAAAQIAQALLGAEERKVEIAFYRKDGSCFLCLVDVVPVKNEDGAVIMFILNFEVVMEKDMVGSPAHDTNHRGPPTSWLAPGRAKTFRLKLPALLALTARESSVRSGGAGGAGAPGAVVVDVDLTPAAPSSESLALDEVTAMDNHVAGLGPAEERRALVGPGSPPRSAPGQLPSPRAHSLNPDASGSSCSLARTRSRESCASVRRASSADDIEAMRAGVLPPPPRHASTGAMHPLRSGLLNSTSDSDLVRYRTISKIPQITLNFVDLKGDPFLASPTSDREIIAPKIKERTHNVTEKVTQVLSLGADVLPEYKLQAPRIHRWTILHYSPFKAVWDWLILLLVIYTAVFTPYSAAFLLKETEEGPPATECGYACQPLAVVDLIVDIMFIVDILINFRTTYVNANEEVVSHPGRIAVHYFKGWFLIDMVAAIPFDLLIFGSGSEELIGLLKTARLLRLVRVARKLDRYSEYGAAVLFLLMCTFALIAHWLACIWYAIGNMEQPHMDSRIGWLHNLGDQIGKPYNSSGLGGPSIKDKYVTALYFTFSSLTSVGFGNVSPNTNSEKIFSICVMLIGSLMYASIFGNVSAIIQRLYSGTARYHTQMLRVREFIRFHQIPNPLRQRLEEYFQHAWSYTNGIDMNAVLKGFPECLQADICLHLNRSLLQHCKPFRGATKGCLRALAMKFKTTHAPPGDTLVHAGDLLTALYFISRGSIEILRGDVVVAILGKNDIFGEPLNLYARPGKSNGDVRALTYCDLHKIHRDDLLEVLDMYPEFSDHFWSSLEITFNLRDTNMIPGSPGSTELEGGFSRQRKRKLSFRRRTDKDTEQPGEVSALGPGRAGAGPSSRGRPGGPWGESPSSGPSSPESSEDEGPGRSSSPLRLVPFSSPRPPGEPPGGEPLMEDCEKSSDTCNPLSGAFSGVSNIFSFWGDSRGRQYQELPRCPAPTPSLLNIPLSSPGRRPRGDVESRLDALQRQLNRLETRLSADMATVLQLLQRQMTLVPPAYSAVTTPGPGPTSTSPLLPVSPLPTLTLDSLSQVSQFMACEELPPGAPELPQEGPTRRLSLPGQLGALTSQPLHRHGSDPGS

Cytochrome P450 2C19 = Cytochrome P450 2C19 (Homo sapiens, UniProt P33261); assay: Inhibition of CYP2C19 in human liver microsomes using S-mephenytoin as substrate by LC-MS/MS analysis; type: ADME
Chain of Cytochrome P450 2C19 (P33261 whole entry): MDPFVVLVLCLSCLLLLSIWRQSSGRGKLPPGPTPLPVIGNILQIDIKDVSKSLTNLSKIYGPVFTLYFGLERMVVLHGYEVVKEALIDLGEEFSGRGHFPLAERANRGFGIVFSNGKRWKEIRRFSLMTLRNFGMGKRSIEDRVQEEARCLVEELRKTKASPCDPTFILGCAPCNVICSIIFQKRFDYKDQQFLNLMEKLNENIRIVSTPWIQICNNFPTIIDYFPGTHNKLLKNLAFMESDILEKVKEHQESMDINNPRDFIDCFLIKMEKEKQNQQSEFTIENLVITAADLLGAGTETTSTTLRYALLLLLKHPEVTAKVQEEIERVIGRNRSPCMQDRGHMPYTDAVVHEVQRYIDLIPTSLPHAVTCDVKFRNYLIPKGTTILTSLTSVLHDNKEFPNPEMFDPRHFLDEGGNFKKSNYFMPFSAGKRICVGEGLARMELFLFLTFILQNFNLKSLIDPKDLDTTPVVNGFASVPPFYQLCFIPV

[13] = Half life in Sprague-Dawley rat at 20 mg/kg, po measured after 1 hrs by LC-MS/MS analysis; type: ADME, organism-based; conditions: in vivo
[14] = Tmax in Sprague-Dawley rat at 2 mg/kg, iv measured after 1 hrs by LC-MS/MS analysis; type: ADME, organism-based; conditions: in vivo
[15] = Cmax in Sprague-Dawley rat at 2 mg/kg, iv measured after 1 hrs by LC-MS/MS analysis; type: ADME, organism-based; design: route intravenous, time 1 hrs, dose 2 mg/kg; conditions: in vivo
[16] = Cmax in Sprague-Dawley rat at 20 mg/kg, po measured after 1 hrs by LC-MS/MS analysis; type: ADME, organism-based; design: route oral, dose 20 mg/kg, time 1 hrs; conditions: in vivo
[17] = AUC (0 to infinity) in Sprague-Dawley rat at 2 mg/kg, iv measured after 1 hrs by LC-MS/MS analysis; type: ADME, organism-based; design: route intravenous, dose 2 mg/kg, time 1 hrs; conditions: in vivo
[18] = Metabolic stability in CD1 mouse hepatocytes assessed as half life by LC-MS/MS analysis; type: ADME, cell-based, Hepatocyte
[19] = Metabolic stability in Beagle dog hepatocytes assessed as half life by LC-MS/MS analysis; type: ADME, cell-based, Canis lupus familiaris, Hepatocyte
[20] = Metabolic stability in human hepatocytes assessed as half life by LC-MS/MS analysis; type: ADME, cell-based, Hepatocyte
[21] = Metabolic stability in human hepatocytes assessed as Intrinsic clearance by LC-MS/MS analysis; type: ADME, cell-based, Hepatocyte
A549 [22] = assay: Induction of apoptosis in human A549 cells expressing wild type p53 assessed as caspase 3 cleavage at 0.3 uM incubated for 24 hrs by Western blot analysis; type: functional, cell-based
[23] = Hepatic clearance in Beagle dog by LC-MS/MS analysis; type: ADME, tissue-based, Canis lupus familiaris, Hepatocyte; conditions: hepatocytes
CYP1A2 = molecular target: T2, CYP1A2 (Homo sapiens, UniProt P05177); assay: Inhibition of CYP1A2 in human liver microsomes using phenacetin as substrate at 50 uM by LC-MS/MS analysis; type: ADME; conditions: probe phenacetin
T2 sequence (P05177 whole entry): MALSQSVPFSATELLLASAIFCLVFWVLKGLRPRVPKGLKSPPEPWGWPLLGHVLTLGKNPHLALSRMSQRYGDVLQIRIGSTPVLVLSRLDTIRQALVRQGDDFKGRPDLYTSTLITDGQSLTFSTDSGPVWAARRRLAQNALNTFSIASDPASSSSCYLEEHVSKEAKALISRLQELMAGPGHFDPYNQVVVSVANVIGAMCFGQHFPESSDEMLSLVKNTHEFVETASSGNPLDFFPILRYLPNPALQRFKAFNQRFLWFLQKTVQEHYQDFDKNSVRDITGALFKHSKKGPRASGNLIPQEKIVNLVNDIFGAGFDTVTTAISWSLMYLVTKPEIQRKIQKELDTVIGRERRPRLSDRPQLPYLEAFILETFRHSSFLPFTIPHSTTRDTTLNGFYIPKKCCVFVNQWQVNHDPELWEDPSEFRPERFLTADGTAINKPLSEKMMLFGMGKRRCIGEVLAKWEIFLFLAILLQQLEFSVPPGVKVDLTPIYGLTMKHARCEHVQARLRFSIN

[24] = Hepatic clearance in human hepatocytes by LC-MS/MS analysis
Heat shock protein HSP90 [25] = molecular target: T1, Heat shock protein HSP90; assay: Inhibition of HSP90 in human A549 cells assessed as downregulation of Src expression at 0.3 uM by immunoblot analysis; conditions: time hrs <=24, TDE = time-dependent effect
NCI-H1975 [26] = assay: Antiproliferative activity against human NCI-H1975 cells harbouring EGFR L858R/T790M mutant measured after 48 hrs by SRB assay; conditions: NCI-H1975, 48 h
[27] = Toxicity in BALB/c mouse xenografted with human H1975 cells assessed as reduction in body weight at 25 to 50 mg/kg, po treated daily relative to control; conditions: in vivo
A549 [28] = assay: Antitumor activity against human A549 cells xenografted in BALB/c mouse assessed as tumor growth delay at 50 mg/kg, po treated daily relative to control
NCI-H1975 [29] = assay: Antitumor activity against human NCI-H1975 cells xenografted in BALB/c mouse assessed as tumor growth inhibition at 50 mg/kg, po treated daily relative to control; conditions: read-out: TGI
A549 [30] = assay: Antitumor activity against human A549 cells xenografted in BALB/c mouse assessed as reduction in tumor growth inhibition at 50 mg/kg, po treated daily relative to control; conditions: read-out: TGI

CCN(C(=O)c1cc(C(C)C)c(O)cc1O)c1cccnc1
Papp B→A [1]: 30.6 ×10⁻⁶ cm/s
IC50 (Heat shock protein HSP90 [2]): 110 nM
inhibition (Heat shock protein HSP90 [3]): Dose-Dependent Effect
inhibition (Heat shock protein HSP90 [4]): Tde
Activity (A549 [5]): Dose-Dependent Effect
inhibition (A549 [6]): Tde
Activity (A549 [7]): Active
Activity (A549 [8]): Active
Activity (A549 [9]): Active
Activity (A549 [10]): Active
Activity (A549 [11]): Active
Activity (A549 [12]): Active
inhibition at 1 h, 10 µM (hERG (KCNH2)): -18%
IC50 (Cytochrome P450 2C19): 7.8 µM
half-life [13]: 984 min
Tmax [14]: 1.8 min
Cmax [15]: 1580 ng/mL
Cmax [16]: 40.5 ng/mL
AUC [17]: 456 ng·h/mL
half-life [18]: 5.31 min
half-life [19]: 39.2 min
half-life [20]: 67.6 min
CLint [21]: 55.3 mL/min/kg
Activity (A549 [22]): inactive
CLhep predicted [23]: 25 mL/min/kg
inhibition at 50 µM (CYP1A2): 50.6%
CLhep predicted [24]: 14.7 mL/min/kg
inhibition (Heat shock protein HSP90 [25]): Tde
GI50 (NCI-H1975 [26]): 50 nM
Activity [27]: Non-Toxic
Activity (A549 [28]): 72%
inhibition in vivo at 50 mg/kg (NCI-H1975 [29]): 34.3%
inhibition in vivo at 50 mg/kg (A549 [30]): 46.9%
